Test results from patent US7078487B2, “PTH1R receptors” (The General Hospital Corporation, priority 1998, dated 2006).

How the values were obtained:
zPTH1R [1] = assay: Agonist-stimulated cAMP accumulation, COS-7 cells expressing zPTH1R; type: cell-based, zebrafish; details: for cAMP Maximum / EC50: intact COS-7 cells, room temperature
Method: (§1) Plasmid DNAs encoding the two full length ZPTH1Rs (#25 and #29) and the zPTH3R were transiently expressed in COS-7 cells. COS-7 African green monkey kidney cells (approximately 200,000 cells/well in a 24-well plate) were cultured and transfected with plasmid DNA (200 ng/well) as described (Rubin et al., (1998)). After transfection, cells were cultured for 72 hrs at 37° with daily exchanges of medium, followed by an additional 24 hrs at 33° (Gardella et al., (1997)) until they were functionally evaluated after 96 hrs.
(§2) In order to assess agonist-dependent cAMP accumulation of COS-7 cells expressing zPTH1R and zPTH3R, experiments were done in 24-well plates with COS-7 cells stimulated in the presence of increasing concentrations of either PTH or PTHrP, and intracellular cAMP was determined as described (Bergiwtz et al.,(1998)). EC50 values were determined as previously described (Gardella et al., (1996)).
(§3) Competitive binding and cAMP stimulation assays were performed at room temperature with intact COS-7 cells that expressed either the zPTH1R or the zPTH3R, as described in Materials and Methods. Homologous binding reactions utilized ^125I-rPTH with unlabeled rPTH, and ^125I-hPTHrP with unlabeled hPTHrP, heterologous binding reactions utilized ^125I-[…] with unlabeled rPTH. EC50 and IC50 values were determined as previously described (Gardella et al., 1996). Values are the mean±SEM of at least three independent transfections. ND, not determined.

zPTH3R [2] = assay: Agonist-stimulated cAMP accumulation, COS-7 cells expressing zPTH3R; type: cell-based, zebrafish
Method: as §1, §2, §3

zPTH1R [3] = assay: Total inositol phosphate accumulation, COS-7 cells expressing zPTH1R; type: cell-based, zebrafish; details: ligand 10^−6 M, 30 mM LiCl
Method: (§4) In order to determine total inositol phosphate turnover for COS-7 cells expressing zPTH1R, zPTH3R, and hPTH1R, cells were grown in 6-well plates with COS-7 cells (approximately 200,00 cells/well transfected with either 1 μg/well of zPTH1R, zPTH3R, or hPTH 1R (stina)). Cells were cultured for 3 days inDMEM/7% fetal bovine serum (FBS) at 37° C. with daily exchanges of medium. The cells were then preloaded with 3 μCi/ml myo-[^3H]inositol (New England Nuclear, Boston, Mass.) in inositol-free DMEM (Gibco)/7% FBS (33° C. for 18 hr). The following day, plates were rinsed and then incubated with 10^−6 M of either PTH, PTHrP in DMEM/0.1% BSA, or with DMEM/0.1% BSA alone (40 min at 37° C.), in the presence of 30 mM LiCl. Total inositol phosphate (IPs) were isolated by anion exchange column chromatography as previously described (Iida-Klein et al., (1994 and 1995)), and 1 ml of the eluate (⅛th of total) was counted in a liquid scintillation counter (model LS 60001C, Beckman, Fullerton, Calif.). All points represent mean±S.E.M. of two to three replicates from two or more independent experiments.

zPTH3R [4] = assay: Total inositol phosphate accumulation, COS-7 cells expressing zPTH3R; type: cell-based, zebrafish; details: ligand 10^−6 M, 30 mM LiCl
Method: as §4

zPTH3R [5] = assay: Competitive radioligand binding, COS-7 cells expressing zPTH3R; set-up: species or system zebrafish
Method: as §1
Radioligand studies with COS-7 cells expressing either zPTH1R or zPTH3R were performed as described using either ^125I-labeled [Nle^8,21,Tyr^34]rPTH-(1–34)amide (rPTH) (SEQ ID NO:22) or ^125I-labeled [Tyr^36]hPTHrP-(1–36)amide (PTHrP) (SEQ ID NO:23), and increasing concentrations of either [Tyr^34]hPTH(1–34)amide (PTH) (SEQ ID NO:24), or [Tyr36]hPTHrP(1–36)amide (PTHrP) (SEQ ID NO:25) (Bergwitz et al., (1997)). […] Specific binding was calculated by subtracting radioligand binding in the presence of excess unlabeled peptide from the total binding. […]
Competitive binding and cAMP stimulation assays were performed at room temperature with intact COS-7 cells that expressed either the zPTH1R or the zPTH3R, as described in Materials and Methods. […] EC50 and IC50 values were determined as previously described (Gardella et al., 1996). […] ND, not determined.

[6] = zPPR3, intact COS-7 cells, room temperature

zPTH1R, sequence (as listed by the source): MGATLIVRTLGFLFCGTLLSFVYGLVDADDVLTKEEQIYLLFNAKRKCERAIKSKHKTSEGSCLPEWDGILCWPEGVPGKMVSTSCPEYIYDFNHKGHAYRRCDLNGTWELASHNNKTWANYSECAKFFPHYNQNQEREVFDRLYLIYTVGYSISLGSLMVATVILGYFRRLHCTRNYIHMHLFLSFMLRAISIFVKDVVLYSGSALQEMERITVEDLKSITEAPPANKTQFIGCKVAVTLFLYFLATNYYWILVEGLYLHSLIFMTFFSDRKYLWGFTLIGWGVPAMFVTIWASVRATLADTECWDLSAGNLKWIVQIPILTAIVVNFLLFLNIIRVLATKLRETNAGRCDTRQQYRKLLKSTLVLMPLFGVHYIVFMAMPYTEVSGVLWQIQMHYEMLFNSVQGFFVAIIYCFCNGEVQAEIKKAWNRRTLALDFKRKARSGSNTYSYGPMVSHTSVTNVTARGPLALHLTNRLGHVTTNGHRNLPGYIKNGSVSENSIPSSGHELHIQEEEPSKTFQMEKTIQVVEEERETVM
zPTH3R, sequence (as listed by the source): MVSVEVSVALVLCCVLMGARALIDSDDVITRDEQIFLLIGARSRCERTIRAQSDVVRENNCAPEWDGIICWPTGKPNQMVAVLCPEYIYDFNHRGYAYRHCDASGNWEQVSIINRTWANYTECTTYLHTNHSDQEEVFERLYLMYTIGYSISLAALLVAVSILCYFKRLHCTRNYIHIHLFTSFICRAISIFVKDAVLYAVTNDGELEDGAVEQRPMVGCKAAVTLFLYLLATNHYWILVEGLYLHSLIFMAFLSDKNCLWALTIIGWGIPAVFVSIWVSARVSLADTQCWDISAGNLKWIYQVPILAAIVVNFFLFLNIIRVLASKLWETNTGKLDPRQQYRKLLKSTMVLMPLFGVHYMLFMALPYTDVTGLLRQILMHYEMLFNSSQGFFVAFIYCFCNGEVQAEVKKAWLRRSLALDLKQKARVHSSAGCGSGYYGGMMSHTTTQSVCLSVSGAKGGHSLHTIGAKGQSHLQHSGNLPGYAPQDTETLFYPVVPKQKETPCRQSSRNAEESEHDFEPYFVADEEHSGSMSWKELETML

With “AVAEIQLMHNLGKHLNSMERVEWLRKKLQDVHDY [hPTH, [Tyr^34]hPTH(1–34)amide]” the “cAMP Maximum” value (zPTH1R [1]; zPPR1#25) was 90.4 ± 11.4 pmol/well, the EC50 (zPTH1R [1]; zPPR1#29) was 0.8 ± 0.03 nM and the “cAMP Maximum” value (zPTH1R [1]; zPPR1#29) was 106.2 ± 4.8 pmol/well. The “maximal cAMP accumulation” value (zPTH1R [1]; zPTH1R#25, COS-7 cells) was 90.4 pmole/well, the “maximal cAMP accumulation” value (zPTH1R [1]; zPTH1R#29, COS-7 cells) was 106.2 pmole/well and the EC50 (zPTH3R [2]; [6]) was 5.98 ± 0.24 nM. The “maximal cAMP accumulation” value (zPTH3R [2]; [6]) was 227.4 ± 41.6 pmol/well, the maximal cAMP accumulation (zPTH3R [2]; zPTH3R, COS-7 cells) was 285 pmol/well and the “increase of IP accumulation” value (zPTH1R [3]) was 2 fold. For the same substance, the IP accumulation (zPTH3R [4]) was “no IP accumulation was detectable”.
[Tyr36]hPTHrP(1–36)amide was tested, and the EC50 (zPTH1R [1]; zPPR1#25) was 0.9 ± 0.09 nM, the “cAMP Maximum” value (zPTH1R [1]; zPPR1#25) was 92.4 ± 8.00 pmol/well and the EC50 (zPTH1R [1]; zPPR1#29) was 0.3 ± 0.04 nM. The “cAMP Maximum” value (zPTH1R [1]; zPPR1#29) was 101.6 ± 3.6 pmol/well, the “maximal cAMP accumulation” value (zPTH1R [1]; zPTH1R#25, COS-7 cells) was 92.4 pmole/well and the “maximal cAMP accumulation” value (zPTH1R [1]; zPTH1R#29, COS-7 cells) was 101.6 pmole/well. For the same substance, the EC50 (zPTH3R [2]; [6]) was 0.49 ± 0.17 nM, the “maximal cAMP accumulation” value (zPTH3R [2]; [6]) was 285.4 ± 3.4 pmol/well and the maximal cAMP accumulation (zPTH3R [2]; zPTH3R, COS-7 cells) was 227 pmol/well. The “cAMP activation at low concentration” value (zPTH3R [2]; zPTH3R, COS-7 cells, 10^−11 M) was “significant activation”, the “increase of IP accumulation” value (zPTH1R [3]) was 2 fold and the IP accumulation (zPTH3R [4]) was “no IP accumulation was detectable”. For the same substance, the IC50 (zPTH3R [5]; [6]) was ~3 nM and the Kd (zPTH3R [5]; zPTH3R, COS-7 cells, read-out: apparent Kd) was ~3 nM.
